# From US10157261B2, “Transcriptome-wide design of selective, bioactive small molecules targeting RNA” (The Scripps Research Institute, priority 2013, dated 2018)
# Experiments:
# 5′CGA/3′GGU RNA = experiment: in solution, fluorescence-based binding affinity assay; parameters: species or system human; conditions: read-out: Dissociation constants, 5′CGA/3′GGU
# Description: (§1) Dissociation constants were determined using an in solution, fluorescence-based assay (Disney et al., J. Am. Chem. Soc. 130, 11185-11194 (2008)). The RNA of interest was folded in 1× Assay Buffer (8 mM Na2HPO4, pH 7.0, 190 mM NaCl, 1 mM EDTA and 40 μg/mL BSA) by heating at 60° C. for 5 min and slowly cooling to room temperature. A selected fluorescently labeled compound was added to a final concentration of 50 nM for compounds 1-Fl, 4-Fl, and 5-Fl or 500 nM for compound 2. Serial dilutions (1:2) were then completed in 1× Assay Buffer supplemented with 50 nM of compounds 1-Fl, 4-Fl, or 5-Fl or 500 nM of 2. The solutions were incubated for 30 min at room temperature and then transferred to a 96-well plate and fluorescence intensity measured. The change in fluorescence intensity as a function of RNA concentration was fit to the following equation (Wang & Rando, Chem. Biol. 2, 281-290. (1995)): I=I0+0.5Δε(([FL]0+[RNA]0+Kt)−(([FL]0+[RNA]0+Kt)^2−4[FL]0[RNA]0)^0.5) where I and I0 are the observed fluorescence intensity in the presence and absence of RNA respectively, Δε is the difference between the fluorescence intensity in the absence of RNA and in the presence of infinite RNA concentration, [FL]0 and [RNA]0 are the concentrations of small molecule and RNA, respectively, and Kt is the dissociation constant.
# (§2) The targetable loops (motifs) were embedded into C1 (FIG. 1) so that affinity measurements could be completed. The secondary structures of the RNAs as predicted by RNAstructure (Mathews et al., Proc. Natl. Acad. Sci. U.S.A. 101, 7287-7292 (2004).) and representative binding curves are shown in (FIG. 4D-4I).
# 5′CGAUU/3′GGUAUA RNA = experiment: as above; parameters: species or system human; conditions: read-out: Dissociation constants, 5′CGAUU/3′GGUAUA
# Description: as §1, §2
# [1] = molecular target: 5′UUU/3′AUA RNA (loop near the processing site of miRNA-96 precursor); experiment: as above; parameters: species or system human
# Description: as §1, §2
# C1 (cassette RNA) = experiment: as above; conditions: read-out: Dissociation constants, C1
# Description: as §1, with “constant. […]” for “constant.”
# H Hairpin (DNA hairpin) = experiment: as above; conditions: read-out: Dissociation constants, H Hairpin
# Description: as §1, with “constant. […]” for “constant.”
# miR-96 = experiment: qRT-PCR of mature miRNA in MCF7 cells; assay type: cell-based, human
# Description: (§3) MCF7 cells were cultured in either 6-well or 12-well plates, and total RNA was extracted using TRIzol LS reagent (Ambion) per the manufacturer's protocol. Approximately 200 ng of total RNA was used in reverse transcription (RT) reactions, which were completed using a Taqman MicroRNA RT Kit (Applied Biosystems) or a miScript II RT kit (Qiagen) per the manufacturer's protocol. qRT-PCR was performed on a 7900HT Fast Real Time PCR System (Applied Biosystem) using Taqman Universal PCR Master Mix or power SYBR green master mix (Applied Biosystems). All primer sets for mature miRNAs were purchased from Applied Biosystems. The expression level of mature miRNAs was normalized to U6 small nuclear RNA.
# (§4) Pri-, pre-, and mature miR-96 RT-PCR products were analyzed on a denaturing 10% polyacrylamide gel stained with ethidium bromide. Expression levels were normalized to GAPDH.
# FOXO1 protein = experiment: Western blotting; assay type: cell-based, human; conditions: 50 nM, MCF7 cells
# Description: MCF7 cells were grown in 6-well plates to ˜80% confluency in complete growth medium. […] Total protein was extracted using M-PER Mammalian Protein Extraction Reagent (Pierce Biotechnology) using the manufacturer's protocol. Extracted total protein was quantified using a Micro BCA Protein Assay Kit (Pierce Biotechnology). Approximately 40 μg of total protein was resolved on an 8% SDS-polyacrylamide gel, and then transferred to a PVDF membrane. The membrane was briefly washed with 1× Tris-buffered saline (TBS), and then blocked in 5% milk in 1×TBST (1×TBS containing 0.1% Tween-20) for 1 h at room temperature. The membrane was then incubated in 1:1000 FOXO1 primary antibodies (Cell Signaling Technology) in 1×TBST containing 3% BSA overnight at 4° C. The membrane was washed with 1×TBST and incubated with 1:2000 anti-rabbit IgG horseradish-peroxidase secondary antibody conjugate (Cell Signaling Technology) in 1×TBS for 1 h at room temperature. After washing with 1×TBST, protein expression was quantified using SuperSignal West Pico Chemiluminescent Substrate (Pierce Biotechnology) per the manufacturer's protocol. The membrane was then stripped using 1× Stripping Buffer (200 mM glycine, pH 2.2 and 0.1% SDS) followed by washing in 1×TBS. […] Image J software from the National Institutes of Health was used to quantify band intensities.
# [2] = test system: MCF10A (healthy breast cells); experiment: Annexin V/PI assay; assay type: cell-based, human; conditions: 50 nM, 72 hours
# Description: Annexin V/PI Assays: MDA MB 231 or MCF-10A cells were grown in 6-well plates to 40-50% confluency. The cells were incubated with 50 nM of small molecule for 72 h and then detached from the surface using accutase. They were washed twice each with ice cold 1×DPBS and 1× Annexin Binding Buffer (50 mM Hepes (pH 7.4), 700 mM NaCl and 12.5 mM CaCl2). The cells were resuspended in 100 μL 1× Annexin Binding Buffer, and then 5 μL Annexin V-APC (eBioscience) were added. The solution was incubated for 10 min at room temperature followed by washing with 1× Annexin Binding Buffer. The cells were then stained with 1 μg/mL propidium iodide in 300 μL of 1× Annexin Binding Buffer for 15 min at room temperature. Flow cytometry was performed using a BD LSRII instrument (BD Biosciences). At least 10,000 events were used for analysis.
# pri-miR-96 = experiment: qRT-PCR of pri-miR-96 in MCF7 cells; assay type: cell-based, human
# Description: as §4
# pre-miR-96 = experiment: qRT-PCR of pre-miR-96 in MCF7 cells; assay type: cell-based, human; conditions: 50 nM
# Description: as §4
# miR-182 = experiment: qRT-PCR of mature miRNA in MCF7 cells; assay type: cell-based, human; conditions: 40 μM, 20 h
# Description: as §3
# miR-183 = experiment: qRT-PCR of mature miRNA in MCF7 cells; assay type: cell-based, human; conditions: 40 μM, 20 h
# Description: as §3
# miR-210 = experiment: qRT-PCR of mature miRNA; assay type: cell-based, human; conditions: 500 nM, ACHN renal cancer cell line
# Description: as §3
# [3] = test system: miR-96-FOXO1 luciferase model system; experiment: Dual luciferase assay, miR-96 3′ UTR target; assay type: cell-based, human; conditions: 40 μM, MCF7 cells
# Description: MCF7 cells were grown in 96-well plates to ˜80% confluency in complete growth medium. The cells were transiently transfected with 100 ng of plasmid encoding either the miR-96 3′ UTR target or a mutated 3′ UTR target using Lipofectamine 2000 per the manufacturer's protocol. Approximately 5 h post transfection, the small molecule of interest was added in complete growth medium, and the cells were incubated for another 20 h. Luciferase activity was then measured using a Dual Glo Luciferase Assay System (Promega) per the manufacturer's protocol. The values reported are the average of at least three measurements, and errors are the corresponding standard deviations.
# MCF7 cells = experiment: APO BrdU TUNEL assay; assay type: cell-based, human; conditions: 40 μM
# Description: ON-TARGETplus SMARTpool FOXO1 siRNA and ONTARGETplus GAPD Control Pool were purchased from Dharmacon (Thermo Scientific) and were used at a final concentration of 100 nM. MCF7 cells were reverse transfected in a 6-well plate using Lipofectamine RNAiMAX reagent (Invitrogen) per the manufacturer's protocol.
# MCF7 cells were grown in 6-well plates to 70-80% confluency. For experiments in which RNAi was used to knock down FOXO1 or GAPDH expression, the cells were first transfected as described above. Cells were treated with small molecules for 20 h followed by completion of an APO BrdU TUNEL assay (Molecular Probes) per the manufacturer's protocol. Flow cytometry was performed using a BD LSRII instrument (BD Biosciences). At least 10,000 events were used for analysis.
smiles,measurement,setting,value
CCCN(CC(=O)N(CCC)CC(=O)N(CC(N)=O)Cc1cn(CCCNC(=O)CCCOc2c(C(C)(C)C)cc(-c3nc4cc(N5CCN(C)CC5)ccc4[nH]3)cc2C(C)(C)C)nn1)C(=O)CCCOc1cccc(-c2nc3ccc(-c4nc5ccc(N6CCN(C)CC6)cc5[nH]4)cc3[nH]2)c1 [BSH-2-H],Kd,5′CGA/3′GGU RNA,900 ± 200 nM
same,Kd,5′CGAUU/3′GGUAUA RNA,85 ± 11 nM
same,Kd,"[1]; read-out: Dissociation constants, 5′UUU/3′AUA",1170 ± 279 nM
same,Kd,C1 (cassette RNA),> 4000 nM
same,Kd,H Hairpin (DNA hairpin),> 50000 nM
same,production of mature microRNA-96,miR-96; 50 nM,significantly inhibited production of the mature microRNA-96
same,effect on mature miRNA-96 levels,"miR-96; 1 μM, 0.5 μM and 0.05 μM, 24 hours",reduced mature miRNA-96 levels in a dose-dependent fashion
same,increase in FOXO1 protein expressed,FOXO1 protein,2.5 fold
same,effect on apoptosis in healthy breast cells,[2],no effect on apoptosis
same,production of pri-microRNA-96,pri-miR-96; 50 nM,boosting production of the pri-microRNA-96
same,increase of pri-miRNA 96,pri-miR-96; 24 hours,about 2.3 fold
same,production of pre-microRNA-96,pre-miR-96,inhibiting production of the pre-microRNA-96
CN1CCN(c2ccc3nc(-c4ccc5nc(-c6cccc(OCCCC(=O)NCCCN=[N+]=[N-])c6)[nH]c5c4)[nH]c3c2)CC1 [Compound 2],binding affinity for the miR-96 precursor,[1],lack of binding affinity
same,effect on miR-96 expression,"miR-96; 40 μM, 20 h",do not affect
same,effect on miR-182 expression,miR-182,do not affect
same,effect on miR-183 expression,miR-183,do not affect
same,reduction of formation of miR-210,miR-210,60%
same,effect on luciferase expression,[3],no effect
same,induction of apoptosis,MCF7 cells,do not induce apoptosis
C#CCCCC(=O)NCC1O[C@H](O[C@@H]2C(N)C[C@@H](N)C(O[C@@H]3OC(CO)[C@H](O)C(N)C3O)[C@H]2O)C(O)[C@@H](O)[C@@H]1O (some centres unmarked) [Compound 3],effect on miR-96 expression,miR-96; 200 μM,"a less, but significant, effect"
CN1CCN(c2ccc3nc(-c4ccc(OCCCC(=O)NCCCN=[N+]=[N-])cc4)[nH]c3c2)CC1 [Compound 5],binding affinity for the miR-96 precursor,[1],lack of binding affinity
same,effect on miR-96 expression,"miR-96; 40 μM, 20 h",do not affect
same,effect on miR-182 expression,miR-182,do not affect
same,effect on miR-183 expression,miR-183,do not affect
same,effect on luciferase expression,[3],no effect
same,induction of apoptosis,MCF7 cells,do not induce apoptosis
